Source: patent publication US12227479B2, “Dihydropyridines for the treatment of cognitive impairment or traumatic brain injury” (Icahn School of Medicine at Mount Sinai, priority 2017, dated 2025)
“And” between values parts separate entries of the source, which are not always exact repeats. Equal values may be shown once. “Also recorded” adds a separate entry of the source. Read-outs that look alike come from different tables or passages of the source.

How the values were obtained:
[1] = tested on: synj1 5′-promoter region; experiment: synj1 5′-promoter luciferase assay (GLuc/SEAP dual reporter) in ApoE4 cortical neurons; type: cell-based; conditions: for inhibition of synj1 transcription activities: luciferase assay; for IC50: Cortical neurone, ApoE4 cortical neurons, 48 hours treatment, read-out: IC50 (synj1 transcriptional activity, luciferase assay)
Procedure: The in vitro luciferase assay uses a dual reporter system of Gaussia luciferase (GLuc) and secreted alkaline phosphatase (SEAP) tagged synj1 5′-promoter region. […] (FIG. 2). DMSO-treated conditions were used as controls and results were presented as percentage of the control (±SEM). One-way ANOVA was performed followed by post-hoc multiple comparison tests to determine the significance of differences between drug-treated vs DMSO control. *p<0.05; N=5-17/condition.

[2] = tested on: synj1; experiment: Western blot of synj1 protein levels in wt cortical neurons; type: cell-based
Procedure: Results were determined by measuring the synj1 protein levels as a percentage of the control (±SEM). One-way ANOVA was performed followed by post-hoc multiple comparison tests to determine the significance of differences between drug-treated vs DMSO control. **p<0.01; N=4-17/condition. […] DMSO-treated conditions were used as controls and results were presented as percentage of the control (±SEM). […] FIGS. 3A, B and C). […] FIGS. 3A, B and C). […] D) In vitro calcium channel inhibition assays. Results were presented as percentage of inhibition (±SEM). […] One-way ANOVA was performed followed by post-hoc multiple comparison tests to determine the significance of differences between drug-treated vs DMSO control. *p<0.05, **p<0.01, ***p<0.001; N=3/condition except in A) nimodipine-treated conditions with N=20.

[3] = tested on: Aβ40; experiment: ELISA of Aβ40 levels in wt cortical neuronal culture; type: cell-based; conditions: wt cortical neurons
Procedure: (§1) DMSO-treated conditions were used as controls and results were presented as percentage of the control (±SEM). […] FIGS. 3A, B and C). […] FIGS. 3A, B and C). […] D) In vitro calcium channel inhibition assays. Results were presented as percentage of inhibition (±SEM). […] One-way ANOVA was performed followed by post-hoc multiple comparison tests to determine the significance of differences between drug-treated vs DMSO control. *p<0.05, **p<0.01, ***p<0.001; N=3/condition except in A) nimodipine-treated conditions with N=20.

[4] = tested on: Aβ42; experiment: ELISA of Aβ42 levels in wt cortical neuronal culture; type: cell-based; conditions: 10 μM, wt cortical neurons
Procedure: as §1

[5] = tested on: synj1; experiment: Long-term daily IP treatment of AD transgenic mice: cortical brain synj1 levels; type: in vivo; conditions: APP/PS1 transgenic mouse, 2.5 mg/kg/day IP for 6 months, compared to Tg vehicle controls
Procedure: (§2) Data is presented as % of wt control (vehicle-treated) time spent exploring novel objects. N=13-15/group. C) Cortical brain synj1 levels as well as D) PIP2 levels in Tg mice (vehicle-, nimodipine- or Example 9-treated) were compared to vehicle-treated controls (as 100%) in wildtype (wt) mice. N=7-13/group. One-way ANOVA was performed followed by post-hoc multiple comparison tests to determine the significance of differences between pairs of means. *p<0.05, **p<0.01, ***p<0.001, ****p<0.0001.

[6] = tested on: Aβ40; experiment: Long-term daily IP treatment of AD transgenic mice: brain Aβ40 levels; type: in vivo, mouse; conditions: 2.5 mg/kg/day IP for 6 months
Procedure: (§3) N=5-7/group. […] One-way ANOVA was performed followed by post-hoc multiple comparison tests to determine the significance of differences between drug-treated vs DMSO control. *p<0.05, **p<0.01.

[7] = Brain and blood exposure after PO administration to male CD-1 mice; type: in vivo, mouse; conditions: for concentration at 1 h / concentration at 3 h / Kp at 1 h / Kp at 3 h: mouse, PO 30 mg/kg, male CD-1 mice; for Kp at 1 h / Kp at 3 h: brain/blood, read-out: Brain/Blood ratio
[8] = in vivo; conditions: male, CD-1, mouse
[9] = tested on: wt cortical neurons; experiment: Observed toxicity in wt cortical neuron cultures; type: cell-based; conditions: 10 μM
[10] = tested on: Ca2+- L type calcium channel (dihydropyridine site); experiment: Calcium channel activity, Cerep radioligand displacement (dihydropyridine site, antagonist); type: binding
Procedure: as §1, with “[table] […] DMSO-treated” for “DMSO-treated”

[11] = tested on: Aβ42; experiment: Long-term daily IP treatment of AD transgenic mice: brain Aβ42 levels; type: in vivo, mouse; conditions: 2.5 mg/kg/day IP for 6 months
Procedure: as §3

[12] = tested on: APP/PS1 transgenic mouse; experiment: Long-term daily IP treatment of AD transgenic mice: NOR and Y maze behavior tests; type: in vivo; conditions: 2.5 mg/kg/day IP for 6 months, vs vehicle Tg mice
Procedure: as §2

[13] = tested on: ApoE4 mice; experiment: Long-term daily oral treatment of ApoE KI mice: NOR test; type: in vivo, mouse; conditions: 3 mg/kg/day oral for 6 months, vs vehicle-treated ApoE4 mice
Procedure: FIG. 7 Long-term in vivo treatment of Example 9 via daily oral administration at 3 mg/kg/day in ApoE KI mice. […] Data is presented as a percentage of ApoE3 control (vehicle-treated) time spent exploring novel objects. N=12-13/group. Cortical brain B) synj1 levels as well as C) pTau levels in ApoE4 mice (vehicle- or Example 9-treated) were compared to vehicle-treated controls (as 100%) in ApoE3 mice. N=6-9/group. One-way ANOVA was performed followed by post-hoc multiple comparison tests to determine the significance of differences between pairs of means. *p<0.05, **p<0.01.

[14] = tested on: Aβ40; experiment: Long-term daily oral treatment of ApoE KI mice: brain Aβ40 levels; type: in vivo, mouse; conditions: 3 mg/kg/day oral
Procedure: (§4) FIG. 8 Long-term in vivo treatment of Example 9 via daily oral administration at 3 mg/kg/day in ApoE KI mice. […] N=5-8/group. Vehicle-treated conditions were used as controls and results were presented as percentage of the control (±SEM). One-way ANOVA was performed followed by post-hoc multiple comparison tests to determine the significance of differences between drug-treated vs DMSO control. *p<0.05, ***p<0.001.

[15] = tested on: Aβ42; experiment: Long-term daily oral treatment of ApoE KI mice: brain Aβ42 levels; type: in vivo, mouse; conditions: 3 mg/kg/day oral
Procedure: as §4

[16] = Blood pharmacokinetics after IV or PO administration to male CD-1 mice
[17] = APP/PS1 transgenic mouse neocortex, vs Tg vehicle
[18] = male, CD-1, mouse, blood, iv, 1 mg/kg
[19] = male, CD-1, mouse, blood, po, 30 mg/kg

COCCOC(=O)C1=C(C)NC(C)=C(C(=O)OC(C)C)C1c1cccc([N+](=O)[O-])c1 (racemic) [nimodipine]
inhibition of synj1 transcription activities ([1]; 10 μM): Nimodipine at 10 μM achieved a 43.0% inhibition of synj1 | IC50 [1]: 3.99 µM | reduction of synj1 protein levels ([2]; 10 μM): 26.6% | reduction of Aβ40 levels ([3]; 10 μM): 47.0% | reduction of Aβ40 levels ([3]; 10 μM, listed as Nimodipine): synj1 protein levels, a 47% reduction of Aβ40 levels and a | reduction of Aβ42 levels [4]: 12.1% | reduction of Aβ42 levels ([4]; listed as Nimodipine): 12.1% reduction of Aβ42 levels. Example 9 at 5 μM exhibited a | reduction of synj1 protein levels in brain neocortical regions [5]: 75.8% | decrease in soluble Aβ40 levels [6, 17]: 24.7% | concentration at 1 h ([7]; blood, read-out: Blood conc.): 70 ng/mL | concentration at 3 h ([7]; blood, read-out: Blood conc.): 62 ng/mL | Kp at 1 h [7]: 1.9 | Kp at 3 h [7]: 1 | concentration at 1 h ([7]; brain, read-out: Brain conc.): 136 ng/mL | concentration at 3 h ([7]; brain, read-out: Brain conc.): 62 ng/mL | bioavailability [8]: 7% | AUC ([8]; iv, 1 mg/kg): 187 ng·h/mL | Cmax ([8]; iv, 1 mg/kg): 341 ng/mL | Vd ([8]; iv, 1 mg/kg): 3.29 L/kg | clearance ([8]; iv, 1 mg/kg): 88.8 mL/min/kg | half-life ([8]; iv, 1 mg/kg): 0.58 h | AUC ([8]; po, 30 mg/kg): 384 ng·h/mL | Cmax ([8]; po, 30 mg/kg): 114 ng/mL | half-life ([8]; po, 30 mg/kg): 7.27 h

COCCOC(=O)C1=C(C)NC(C)=C(C(=O)OC(C)C)C1c1ccc(C(F)(F)F)cc1 (centres unmarked) [Example 6, 3-isopropyl 5-(2-methoxyethyl) 2,6-dimethyl-4-(4-(trifluoromethyl)phenyl)-1,4-dihydropyridine-3,5-dicarboxylate]
IC50 [1]: 1.89 µM | toxicity in cortical neuron culture [9]: observed toxicities

COCCOC(=O)C1=C(C)NC(C)=C(C(=O)OC(C)C)C1c1ccc(OC(F)(F)F)cc1 (centres unmarked) [Example 7]
toxicity in cortical neuron culture [9]: observed toxicities

COCCOC(=O)C1=C(C)NC(C)=C(C(=O)OC(C)C)C1c1ccc(C(C)(C)C)cc1 (centres unmarked) [Example 9, 3-isopropyl 5-(2-methoxyethyl) 4-(4-(tert-butyl)phenyl)-2,6-dimethyl-1,4-dihydropyridine-3,5-dicarboxylate]
inhibition of synj1 transcription activities ([1]; 3 μM): 44.4% inhibition. | IC50 [1]: 3.33 µM | reduction of synj1 protein levels ([2]; 5 μM): 62.4% and 62.3% | reduction of Aβ40 levels ([3]; 5 μM): 82.6% | calcium channel inhibition ([10]; 1 nM): no calcium channel | calcium channel inhibition ([10]; 0.1 μM): 81.3% | calcium channel inhibition compared to nimodipine (in words) ([10]; versus nimodipine): attenuated calcium channel blockade effects; also recorded: Example 9 has attenuated calcium channel inhibition versus | toxicity in cortical neuron culture [9]: observed toxicities | reduction of synj1 protein levels in brain neocortical regions [5]: 99.4% | levels of insoluble Aβ42 in Tg animal brains (in words) ([11]; AD transgenic mice): trend of reduction | levels of soluble Aβ42 in Tg animal brains (in words) ([11]; AD transgenic mice): Reduction | decrease in insoluble Aβ42 levels [11, 17]: 27.4% | decrease in soluble Aβ42 levels [11, 17]: insoluble Aβ42 levels, a 19.3% decrease in soluble Aβ42 levels, | levels of insoluble Aβ40 in Tg animal brains (in words) ([6]; AD transgenic mice): Reduction | decrease in insoluble Aβ40 levels [6, 17]: 23.7% | decrease in soluble Aβ40 levels [6, 17]: 12% | cognitive function in NOR and Y-maze tests (in words) [12]: cognitive improvements | cognitive function in NOR test (in words) [13]: cognitive improvements | levels of soluble Aβ40 in ApoE4 animal brains (in words) [14]: reduction | levels of insoluble Aβ42 in ApoE4 animal brains (in words) [15]: trend of reduction | levels of soluble Aβ42 in ApoE4 animal brains (in words) [15]: reduction | CNS penetrability (in words) ([7]; compared with nimodipine): better than nimodipine | concentration at 1 h ([7]; blood, read-out: Blood conc.): 518 ng/mL | concentration at 3 h ([7]; blood, read-out: Blood conc.): 607 ng/mL | Kp at 1 h [7]: 1.2 | Kp at 3 h [7]: 0.7 | concentration at 1 h ([7]; brain, read-out: Brain conc.): 604 ng/mL | concentration at 3 h ([7]; brain, read-out: Brain conc.): 421 ng/mL | oral bioavailability (in words) ([16]; compared with nimodipine): better than nimodipine | AUC [16, 18]: 189 ng·h/mL | Cmax [16, 18]: 228 ng/mL | Vd [16, 18]: 8.2 L/kg | clearance [16, 18]: 85 mL/min/kg | half-life [16, 18]: 1.68 h | bioavailability ([16]; male, CD-1, mouse, blood, oral, 30 mg/kg): 73% | AUC [16, 19]: 4120 ng·h/mL | Cmax [16, 19]: 1010 ng/mL | half-life [16, 19]: 0.84 h
